Data: US7018993B2, “Antiandrogenic agent” (Chugai Seiyaku Kabushiki Kaisha, priority 2000, dated 2006)
Values belong to the molecule of their own block, whether it stands above or below them.

What was measured:
[1] = target: androgen receptor (Homo sapiens, UniProt P10275); details: 10 μmol/L; cited from earlier work
[2] = prostate cancer patients undergoing treatment with flutamide; cited from earlier work
[3] = target: T1, human androgen receptor (Homo sapiens, UniProt P10275); test: Androgen receptor reporter gene assay for antagonistic effects (inhibition of DHT-induced transcriptional activity, HeLa cells); type: cell-based
T1 construct: expressed in transfected cells; host or cells: HeLa cells
T1 sequence (P10275 1-920): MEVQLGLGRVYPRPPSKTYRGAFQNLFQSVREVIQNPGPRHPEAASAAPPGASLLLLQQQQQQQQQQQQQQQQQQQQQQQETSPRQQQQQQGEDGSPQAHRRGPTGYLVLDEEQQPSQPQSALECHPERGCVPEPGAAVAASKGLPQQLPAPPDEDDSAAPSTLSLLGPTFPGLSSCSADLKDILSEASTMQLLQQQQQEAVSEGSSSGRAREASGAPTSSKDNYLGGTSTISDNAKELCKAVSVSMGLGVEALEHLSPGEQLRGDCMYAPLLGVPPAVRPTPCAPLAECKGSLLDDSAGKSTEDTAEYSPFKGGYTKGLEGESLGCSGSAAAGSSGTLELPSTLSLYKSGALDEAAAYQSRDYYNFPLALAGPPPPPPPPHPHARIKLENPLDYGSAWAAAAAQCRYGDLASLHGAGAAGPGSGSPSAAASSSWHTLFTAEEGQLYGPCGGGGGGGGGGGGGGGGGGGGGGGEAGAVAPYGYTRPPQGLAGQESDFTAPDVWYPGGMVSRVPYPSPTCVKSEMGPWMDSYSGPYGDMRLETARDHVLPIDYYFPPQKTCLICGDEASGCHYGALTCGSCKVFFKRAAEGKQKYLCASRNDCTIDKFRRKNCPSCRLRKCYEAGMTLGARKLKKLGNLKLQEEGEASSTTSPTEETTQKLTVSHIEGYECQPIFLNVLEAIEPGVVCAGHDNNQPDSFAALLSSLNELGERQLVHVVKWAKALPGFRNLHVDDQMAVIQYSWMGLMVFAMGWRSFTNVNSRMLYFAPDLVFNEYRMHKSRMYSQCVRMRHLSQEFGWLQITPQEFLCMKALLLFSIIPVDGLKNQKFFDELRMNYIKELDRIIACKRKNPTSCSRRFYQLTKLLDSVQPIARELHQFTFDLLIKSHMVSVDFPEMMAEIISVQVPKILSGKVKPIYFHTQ
Description: Twenty-four hours before transfection, 1.0×10^5 HeLa cells are cultured in a 12-well microplate containing phenol red-free DMEM/5% DCC-FBS. […] To effect this assay, reference may be made to J. Biol. Chem., vol. 270, p.
(§1) Twenty-four hours before transfection, 1.0×10^5 HeLa cells are cultured in a 12-well microplate containing phenol red-free DMEM/5% DCC-FBS.

[4] = target: T1, human androgen receptor; test: Androgen receptor reporter gene assay for agonistic effects (MMTV-Luc, HeLa cells); type: cell-based; details: 10 μmol/L
Description: Twenty-four hours before transfection, 1.0×10^5 HeLa cells (purchased from Dainippon Pharmaceutical Co., Ltd.) are cultured in a 12-well microplate containing phenol red-free Dulbecco's Modified Eagle Medium (phenol red-free DMEM) supplemented with charcoal-treated FBS (DCC-FBS; 5%). […] To effect this assay, reference may be made to J. Biol. Chem., vol. 270, p.
as §1

[5] = tested on: prostate weight; details: castrated rats, continuous administration for two weeks; cited from earlier work

Luciferase activity (Relative activity) ([3]; 1.0 μmol/L compound with 0.1 nmol/L DHT, 48 h, activity given by 0.1 nmol/L DHT set to 100): 29.0 (<50.0)
agonistic effects [4]: observed to have agonistic effects
SMILES: CC(C)(O)C(=O)Nc1ccc([N+](=O)[O-])c(C(F)(F)F)c1 [Hydroxyflutamide, hydroxyflutamide]
transcriptional activity of androgen receptor [1]: enhance the transcriptional activity
blood hydroxyflutamide levels [2]: several

SMILES: CC(=O)O[C@]1(C(C)=O)CC[C@H]2[C@@H]3C=C(Cl)C4=CC(=O)[C@@H]5C[C@@H]5[C@]4(C)[C@H]3CC[C@@]21C [cyproterone acetate]
prostate weight [5]: increase in their prostate weight

SMILES: CC(=O)O[C@]1(C(C)=O)CC[C@H]2[C@@H]3C=C(Cl)C4=CC(=O)CC[C@]4(C)[C@H]3CC[C@@]21C [chlormadinone acetate]
prostate weight [5]: increase in their prostate weight

SMILES: CN(C)C(=O)CCCOc1cc(O)cc(CCC[C@@H]2C[C@H]3CC(=O)CC[C@]3(C)[C@H]3CC[C@]4(C)[C@@H](O)CC[C@H]4[C@H]23)c1 [Compound from Example 3, 17β-Hydroxy-7α-(3-(3-hydroxy-5-(3-(N,N-dimethylaminocarbonyl)propoxy)phenyl)propyl)-5α-androstan-3-one]
IC50 [3]: 392 nM
